SMILES strings stand for the structures.

In the first assay the target is T1, Human immunodeficiency virus type 1 reverse transcriptase (Human immunodeficiency virus 1, UniProt Q72547). Briefly: Compound was evaluated for inhibition of HIV-1 reverse transcriptase using rC.dG and [3H]dGTP as substrates at 100 ug/mL.
`O=C(CCCCCCC(=O)Nc1ccc(Br)cc1C(=O)O)Nc1ccc(Br)cc1C(=O)O` came in with a 50% inhibitory concentration (IC50) of 18 µM.

The target of another assay is T1, Human immunodeficiency virus type 1 reverse transcriptase. Briefly: Evaluated for inhibition of HIV-1 reverse transcriptase.
`Cc1ccc(NC(=O)CCCCC(=O)Nc2ccc(C)cc2C(=O)O)c(C(=O)O)c1` returned an IC50 of 14 µM.

For `O=C(CCCCCC(=O)Nc1ccc(Cl)cc1C(=O)O)Nc1ccc(Cl)cc1C(=O)O`, the IC50 came to 9 µM.

Take `N#Cc1ccc(NC(=O)CCCCC(=O)Nc2ccc(C#N)cc2C(=O)O)c(C(=O)O)c1`: the IC50 is over 100 µM.

`O=C(Nc1ccc(Br)cc1C(=O)O)c1ccc(C(=O)Nc2ccc(Br)cc2C(=O)O)nc1`: the IC50 was 35 µM.

Consider `O=C(CCCCC(=O)Nc1ccc(F)cc1C(=O)O)Nc1ccc(F)cc1C(=O)O`, for which the IC50 was over 120 µM.

Take `O=C(CCCCC(=O)Nc1ccc(Br)cc1C(=O)O)Nc1ccc(Br)cc1C(=O)O`: the IC50 turned out to be 3.1 µM.

As to `COc1ccc(NC(=O)CCCCC(=O)Nc2ccc(OC)cc2C(=O)O)c(C(=O)O)c1`, the midpoint of inhibition, the IC50, lay at 10.6 µM.

`O=C(CCCC(=O)Nc1ccc(Cl)cc1C(=O)O)Nc1ccc(Cl)cc1C(=O)O` registered an IC50 of 8.7 µM.

`O=C(CCCCC(=O)Nc1ccc(Cl)cc1C(=O)O)Nc1ccc(Cl)cc1C(=O)O` displayed an IC50 of 8.7 µM.

As to `O=C(CCCCC(=O)Nc1ccc(Br)cc1C(=O)O)Nc1ccc(Br)cc1`, the half-maximal inhibitory concentration (IC50) amounted to 15 µM.

`O=C(CCCCC(=O)Nc1ccccc1C(=O)O)Nc1ccccc1C(=O)O` returned an IC50 of 21 µM.

On to `O=C(Nc1ccc(Br)cc1C(=O)O)c1ccnc(C(=O)Nc2ccc(Br)cc2C(=O)O)c1`, for which the IC50 was found to be 66 µM.

As for `CSc1ccc(NC(=O)CCCCC(=O)Nc2ccc(SC)cc2C(=O)O)c(C(=O)O)c1`, the 50% inhibitory concentration (IC50) was 19 µM.

For another assay the target is unchanged. The assay is described as follows: Evaluated for inhibition of HIV-1 reverse transcriptase; Inactive means <50% inhibition at 100 ug/mL concentration.
As for `O=C(COCC(=O)Nc1ccc(Br)cc1C(=O)O)Nc1ccc(Br)cc1C(=O)O`, the IC50 entry is reported as “Not Active”.

In the case of `O=C(CCCCC(=O)Nc1ccccc1C(=O)O)Nc1ccc(Br)cc1`, the 50% inhibitory concentration (IC50) result is given as “Not Active”.

Regarding `O=C(CCCCC(=O)Nc1ccccc1C(=O)O)Nc1ccccc1`, the IC50 entry is “Not Active”.

For the compound `O=C(Cc1cccc(CC(=O)Nc2ccc(Br)cc2C(=O)O)c1)Nc1ccc(Br)cc1C(=O)O`, the IC50 entry is “Not Active”.

As for `O=C(CCCCC(=O)Nc1ccc(Br)cc1C(=O)O)Nc1ccccc1`, the IC50 entry is reported as “Not Active”.

For the compound `CN(CC(=O)Nc1ccc(Br)cc1C(=O)O)CC(=O)Nc1ccc(Br)cc1C(=O)O`, the IC50 result is listed as “Not Active”.

As for `O=C(CCCCC(=O)Nc1ccc(Br)cc1)Nc1ccccc1`, the IC50 entry is “Not Active”.

For `O=C(Nc1ccc(Br)cc1C(=O)O)c1cccc(C(=O)Nc2ccc(Br)cc2C(=O)O)n1`, the IC50 entry is recorded as “Not Active”.

Consider `O=C(Nc1ccc(Br)cc1C(=O)O)c1cncc(C(=O)Nc2ccc(Br)cc2C(=O)O)c1`, for which the IC50 result is reported as “Not Active”.

Another assay shares this target. Briefly: Compound was evaluated for inhibition of HIV-1 reverse transcriptase using rC.dG and [3H]dGTP as substrates at 100 ug/ml.
In turn, `CC(=O)Nc1ccc(NC(=O)CCCCC(=O)Nc2ccc(NC(C)=O)cc2C(=O)O)c(C(=O)O)c1` registered an IC50 of over 100 µM.

By IC50 is commonly meant the concentration needed to halve the response being measured.

Values taken from ChEMBL document CHEMBL1130588, “Biaryl acids: novel non-nucleoside inhibitors of HIV reverse transcriptase types 1 and 2” (Bioorg Med Chem Lett, 1998).
